Drawing on ChEMBL document CHEMBL1139302, “Modification of the N-terminal sulfonyl residue in 3-amidinophenylalanine-based matriptase inhibitors” (Bioorg Med Chem Lett, 2009), this text covers Ki for 28 compounds.

Assay [1] addresses T1, Suppressor of tumorigenicity 14 protein (Homo sapiens, UniProt Q9Y5Y6).
T1 sequence (Q9Y5Y6 whole entry): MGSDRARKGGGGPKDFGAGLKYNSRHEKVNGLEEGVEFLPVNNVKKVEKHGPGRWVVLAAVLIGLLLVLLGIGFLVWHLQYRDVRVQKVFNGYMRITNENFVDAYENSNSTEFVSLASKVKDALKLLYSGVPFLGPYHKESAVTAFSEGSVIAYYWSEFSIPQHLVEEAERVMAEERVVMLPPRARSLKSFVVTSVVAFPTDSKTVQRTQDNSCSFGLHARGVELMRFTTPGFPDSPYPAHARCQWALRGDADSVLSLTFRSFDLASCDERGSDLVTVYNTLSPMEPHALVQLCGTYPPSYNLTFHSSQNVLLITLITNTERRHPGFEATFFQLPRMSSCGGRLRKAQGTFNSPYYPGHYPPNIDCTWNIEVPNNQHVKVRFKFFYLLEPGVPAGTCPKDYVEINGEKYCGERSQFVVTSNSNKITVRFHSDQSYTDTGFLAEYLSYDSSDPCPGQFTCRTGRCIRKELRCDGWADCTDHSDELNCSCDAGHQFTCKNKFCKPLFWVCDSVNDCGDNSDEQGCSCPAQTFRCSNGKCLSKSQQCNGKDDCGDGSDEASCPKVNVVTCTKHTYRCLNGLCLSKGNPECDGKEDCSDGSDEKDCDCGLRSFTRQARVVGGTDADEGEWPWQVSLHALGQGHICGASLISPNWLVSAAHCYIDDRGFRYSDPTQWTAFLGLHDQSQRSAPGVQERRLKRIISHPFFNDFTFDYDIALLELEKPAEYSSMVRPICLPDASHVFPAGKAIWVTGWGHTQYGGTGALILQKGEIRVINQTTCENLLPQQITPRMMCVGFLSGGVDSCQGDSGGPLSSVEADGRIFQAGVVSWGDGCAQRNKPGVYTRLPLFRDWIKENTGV
Description: Inhibition of matriptase.

Assay [2] deals with Prothrombin (Homo sapiens, UniProt P00734). Description: Inhibition of thrombin.
Assay [3] concerns the target Urokinase-type plasminogen activator (Homo sapiens, UniProt P00749). As to the kind of experiment: Inhibition of uPA.
The target in assay [4] is Plasminogen (Homo sapiens, UniProt P00747). Description: Inhibition of plasmin.
Plasminogen, sequence (P00747 97-580 limits assumed): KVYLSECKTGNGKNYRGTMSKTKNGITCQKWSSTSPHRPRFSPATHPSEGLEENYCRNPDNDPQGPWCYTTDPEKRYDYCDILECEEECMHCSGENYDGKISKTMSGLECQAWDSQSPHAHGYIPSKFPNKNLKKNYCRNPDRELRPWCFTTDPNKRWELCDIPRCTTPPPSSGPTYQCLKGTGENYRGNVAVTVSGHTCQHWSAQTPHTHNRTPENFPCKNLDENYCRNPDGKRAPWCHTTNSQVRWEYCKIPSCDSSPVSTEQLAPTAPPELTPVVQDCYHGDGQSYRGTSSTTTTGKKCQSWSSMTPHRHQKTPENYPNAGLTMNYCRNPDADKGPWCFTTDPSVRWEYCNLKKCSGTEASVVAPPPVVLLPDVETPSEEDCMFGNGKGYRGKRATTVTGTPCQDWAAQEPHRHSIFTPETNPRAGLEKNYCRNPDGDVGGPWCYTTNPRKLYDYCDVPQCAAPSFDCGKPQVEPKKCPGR
Plasminogen, sequence (P00747 581-810 limits assumed): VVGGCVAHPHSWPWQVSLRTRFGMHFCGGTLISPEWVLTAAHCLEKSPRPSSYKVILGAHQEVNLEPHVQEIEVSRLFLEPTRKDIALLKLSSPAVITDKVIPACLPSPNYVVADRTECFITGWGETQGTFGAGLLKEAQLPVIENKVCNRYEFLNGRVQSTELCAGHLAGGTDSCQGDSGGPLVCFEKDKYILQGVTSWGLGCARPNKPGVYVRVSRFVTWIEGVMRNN
Assay [5] deals with Coagulation factor X (Homo sapiens, UniProt P00742). Description: Inhibition of factor 10a.
Coagulation factor X, sequence (P00742 41-179 limits assumed): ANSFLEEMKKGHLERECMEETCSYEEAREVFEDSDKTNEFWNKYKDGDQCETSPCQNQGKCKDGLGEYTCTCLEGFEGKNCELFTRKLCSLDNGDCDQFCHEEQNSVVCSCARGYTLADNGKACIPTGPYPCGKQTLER
Coagulation factor X, sequence (P00742 235-488 limits assumed): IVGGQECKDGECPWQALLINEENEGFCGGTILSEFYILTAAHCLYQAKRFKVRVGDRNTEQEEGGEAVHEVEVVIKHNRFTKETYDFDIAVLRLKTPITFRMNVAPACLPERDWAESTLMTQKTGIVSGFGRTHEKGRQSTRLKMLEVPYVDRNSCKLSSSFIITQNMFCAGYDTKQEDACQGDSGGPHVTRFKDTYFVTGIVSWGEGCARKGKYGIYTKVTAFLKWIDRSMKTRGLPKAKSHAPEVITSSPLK

On to `N=C(N)c1cccc(C[C@H](NS(=O)(=O)c2cccc(NC(=O)CCN)c2)C(=O)N2CCC(CCN)CC2)c1`, for which the Ki in assay [1] worked out at 0.0038 µM.
In assay [1], `NCCC(=O)Nc1cccc(S(=O)(=O)N[C@@H](CCc2ccccc2)C(=O)N2CCC(CCN)CC2)c1` returned an inhibition constant (Ki) above 1000 µM.
In the case of `NCCC(=O)Nc1cccc(S(=O)(=O)N[C@@H](Cc2cccc(CN)c2)C(=O)N2CCC(CCN)CC2)c1`, the inhibitory constant (Ki) is above 1000 µM in assay [2], above 1000 µM in assay [3], 16 µM in assay [4] and 92 µM in assay [5].
`N=C(N)c1cccc(C[C@H](NS(=O)(=O)c2cccc(-c3ccc(N)nc3)c2)C(=O)N2CCC(CCN)CC2)c1`: the inhibition constant (Ki) came out at 0.11 µM in assay [2]; 3.6 µM in assay [3]; 0.23 µM in assay [4]; 0.0016 µM in assay [1]; 0.25 µM in assay [5].
Regarding `CCC(=O)Nc1cccc(S(=O)(=O)N[C@@H](Cc2cccc(C(=N)N)c2)C(=O)N2CCC(CCN)CC2)c1`, the Ki in assay [2] is 1.9 µM; in assay [3], 8.1 µM; in assay [4], 3.5 µM; in assay [1], 0.18 µM; in assay [5] it was 20 µM.
On to `CCOC(=O)Nc1cccc(S(=O)(=O)N[C@@H](Cc2cccc(C(=N)N)c2)C(=O)N2CCC(CCN)CC2)c1`, for which the inhibitory constant (Ki) in assay [2] was determined as 1.2 µM; in assay [3], 3.2 µM; in assay [4], 2.1 µM; in assay [1] it was 0.041 µM; in assay [5], 14 µM.
The matching figures for `N=C(N)c1cccc(C[C@H](NS(=O)(=O)c2cccc(NC(=O)C3CNC3)c2)C(=O)N2CCC(CCN)CC2)c1`: 5.1 µM, 3.7 µM, 0.5 µM, 0.003 µM and 11.2 µM.
The matching figures for `NCCC(=O)Nc1cccc(S(=O)(=O)N[C@@H](Cc2ccc(CN)cc2)C(=O)N2CCC(CCN)CC2)c1`: 325 µM, above 1000 µM, 64.8 µM, 2.8 µM and 430 µM.
The matching figures for `N=C(N)c1cccc(C[C@H](NS(=O)(=O)c2cccc(CCCCN)c2)C(=O)N2CCC(CCN)CC2)c1`: 0.46 µM, 3.8 µM, 0.2 µM, 0.001 µM and 4.4 µM.
For the compound `N=C(N)c1cccc(C[C@H](NS(=O)(=O)c2cccc(C3CCC(N)=NC3)c2)C(=O)N2CCC(CCN)CC2)c1` (stereo partly specified), the Ki in assay [2] was 0.52 µM; in assay [3] it was 6.6 µM; in assay [4], 0.028 µM; in assay [1], 8e-05 µM; in assay [5], 0.01 µM.
With `N=C(N)c1cccc(C[C@H](NS(=O)(=O)c2cccc(NCCCN)c2)C(=O)N2CCC(CCN)CC2)c1`, the inhibition constant Ki amounted to 2.2 µM in assay [2]; 5.2 µM in assay [3]; 0.46 µM in assay [4]; 0.0067 µM in assay [1]; 8 µM in assay [5].
As for `Cc1nccc(-c2cccc(S(=O)(=O)N[C@@H](Cc3cccc(C(=N)N)c3)C(=O)N3CCC(CCN)CC3)c2)n1`, the Ki in assay [2] stood at 0.31 µM; in assay [3], 8.7 µM; in assay [4], 0.21 µM; in assay [5], 1.7 µM.
The matching figures for `N=C(N)c1cccc(C[C@H](NS(=O)(=O)c2cccc(NC(=O)CCO)c2)C(=O)N2CCC(CCN)CC2)c1`: 5.5 µM, 3 µM, 2.6 µM and 61 µM.
In turn, `NCCC(=O)Nc1cccc(S(=O)(=O)N[C@@H](Cc2ccccc2)C(=O)N2CCC(CCN)CC2)c1` gave an inhibition constant Ki in assay [1] of 10 µM.
On to `NCCC(=O)Nc1cccc(S(=O)(=O)N[C@@H](CCCc2ccccc2)C(=O)N2CCC(CCN)CC2)c1`, for which the Ki in assay [1] was above 1000 µM.
Regarding `COc1ccc(-c2cccc(S(=O)(=O)NC(Cc3cccc(C(=N)N)c3)C(=O)N3CCC(CCN)CC3)c2)cc1OC` (racemic), the inhibition constant (Ki) came out at 1.1 µM in assay [2], 14 µM in assay [3], 0.23 µM in assay [4] and 0.42 µM in assay [5].
`COc1ccc(-c2cccc(S(=O)(=O)NC(Cc3cccc(C(=N)N)c3)C(=O)N3CCC(CCN)CC3)c2)cc1` (racemic): the Ki in assay [2] turned out to be 0.04 µM; in assay [3], 10 µM; in assay [4], 0.12 µM; in assay [1] it was 0.007 µM; in assay [5], 0.36 µM.
As to `CCc1ccc(-c2cccc(S(=O)(=O)NC(Cc3cccc(C(=N)N)c3)C(=O)N3CCC(CCN)CC3)c2)cc1` (racemic), the inhibition constant (Ki) in assay [2] is 0.033 µM; in assay [3] it was 6.9 µM; in assay [4], 0.214 µM; in assay [5], 0.63 µM.
Take `N=C(N)c1cccc(CC(NS(=O)(=O)c2cccc(-c3ccccc3)c2)C(=O)N2CCC(CCN)CC2)c1` (racemic): the inhibition constant (Ki) amounted to 0.056 µM in assay [2]; 8.3 µM in assay [3]; 0.55 µM in assay [4]; 0.11 µM in assay [1]; 5.4 µM in assay [5].
For `COc1ccc(-c2cccc(S(=O)(=O)NC(Cc3cccc(CN)c3)C(=O)N3CCC(CCN)CC3)c2)cc1` (racemic), the Ki stood at 9.8 µM in assay [2], 129 µM in assay [3], 0.776 µM in assay [4] and 55 µM in assay [5].
The matching figures for `N=C(N)c1cccc(CC(NS(=O)(=O)c2cccc(-c3cccc(Cl)c3)c2)C(=O)N2CCC(CCN)CC2)c1` (racemic): 0.051 µM, 12 µM, 0.334 µM and 5.6 µM.
The matching figures for `N=C(N)c1cccc(CC(NS(=O)(=O)c2cccc(-c3ccncc3)c2)C(=O)N2CCC(CCN)CC2)c1` (racemic): 0.16 µM, 3.7 µM, 0.11 µM and 1.6 µM.
The matching figures for `N=C(N)c1cccc(CC(NS(=O)(=O)c2cccc(-c3cccnc3)c2)C(=O)N2CCC(CCN)CC2)c1` (racemic): 0.15 µM, 11 µM, 1 µM and 3.5 µM.
For the compound `CC(C)Oc1ccc(-c2cccc(S(=O)(=O)NC(Cc3cccc(C(=N)N)c3)C(=O)N3CCC(CCN)CC3)c2)cc1` (racemic), the Ki amounted to 0.24 µM in assay [2], 9.6 µM in assay [3], 0.08 µM in assay [4] and 3.4 µM in assay [5].
The matching figures for `N=C(N)c1cccc(CC(NS(=O)(=O)c2cccc(-c3ccc4[nH]ccc4c3)c2)C(=O)N2CCC(CCN)CC2)c1` (racemic): 0.19 µM, 6.2 µM, 0.38 µM and 0.15 µM.
As to `N=C(N)c1cccc(CC(NS(=O)(=O)c2cccc(-c3ccccc3Cl)c2)C(=O)N2CCC(CCN)CC2)c1` (racemic), the inhibition constant Ki in assay [2] was determined as 0.011 µM; in assay [3], 12 µM; in assay [4], 0.085 µM; in assay [5], 0.7 µM.
The matching figures for `N=C(N)c1cccc(CC(NS(=O)(=O)c2cccc(-c3ccc(Cl)cc3)c2)C(=O)N2CCC(CCN)CC2)c1` (racemic): 0.01 µM, 11 µM, 0.183 µM and 0.91 µM.
As to `CCOc1ccc(-c2cccc(S(=O)(=O)NC(Cc3cccc(C(=N)N)c3)C(=O)N3CCC(CCN)CC3)c2)cc1` (racemic), the inhibitory constant (Ki) in assay [2] turned out to be 0.45 µM; in assay [3] it was 8.6 µM; in assay [4] it was 0.15 µM; in assay [1], 0.006 µM; in assay [5], 0.66 µM.
